Test results as given in US20230002357A1, “7-PYRIMIDINE-2-YL-OXY-INDAZOLE DERIVATIVES AND THEIR USE AS HERBICIDES” (SYNGENTA CROP PROTECTION AG, priority 2019, published 2023).

Key:
Type in all cases: in vivo
Conditions in all cases: 250 g/ha, evaluated after 13 days
Setaria faberi (SETFA) [1] = test: Post-emergence Test, glasshouse, SETFA
Description: (§1) Seeds of a variety of test species are sown in standard soil in pots Amaranthus retoflexus (AMARE), Echinochloa crus-galli (ECHCG), Setaria faberi (SETFA)). After cultivation for one day (pre-emergence) or after 8 days cultivation (post-emergence) under controlled conditions in a glasshouse (at 24/16° C., day/night; 14 hours light; 65% humidity), the plants are sprayed with an aqueous spray solution derived from the formulation of the technical active ingredient in acetone/water (50:50) solution containing 0.5% Tween™ 20 (polyoxyethelyene sorbitan monolaurate, CAS RN 9005-64-5). Compounds are applied at 250 g/ha unless otherwise stated. The test plants are then grown in a glasshouse under controlled conditions in a glasshouse (at 24/16° C., day/night; 14 hours light; 65% humidity) and watered twice daily. After 13 days for pre- and post-emergence, the test is evaluated for the percentage damage caused to the plant. The biological activities are shown in the following table on a five-point scale (5=81-100%; 4=61-80%; 3=41-60%; 2=21-40%; 1=0-20%).

IPOHE [2] = test: Pre-emergence Test, glasshouse, IPOHE
Description: as §1

IPOHE [3] = test: Post-emergence Test, glasshouse, IPOHE
Description: as §1

[4] = tested on: Amaranthus retoflexus (AMARE); test: Post-emergence Test, glasshouse, AMARE
Description: as §1

Setaria faberi (SETFA) [5] = test: Pre-emergence Test, glasshouse, SETFA
Description: as §1

[6] = tested on: Echinochloa crus-galli (ECHCG); test: Post-emergence Test, glasshouse, ECHCG
Description: as §1

ABUTH [7] = test: Pre-emergence Test, glasshouse, ABUTH
Description: as §1

[8] = tested on: Amaranthus retoflexus (AMARE); test: Pre-emergence Test, glasshouse, AMARE
Description: as §1

ABUTH [9] = test: Post-emergence Test, glasshouse, ABUTH
Description: as §1

[10] = tested on: Echinochloa crus-galli (ECHCG); test: Pre-emergence Test, glasshouse, ECHCG
Description: as §1

| Compound | percentage damage caused to the plant, five-point scale, SETFA (Setaria faberi (SETFA) [1]) | percentage damage caused to the plant, five-point scale, IPOHE (IPOHE [2]) | percentage damage caused to the plant, five-point scale, IPOHE (IPOHE [3]) | percentage damage caused to the plant, five-point scale, AMARE [4] | percentage damage caused to the plant, five-point scale, SETFA (Setaria faberi (SETFA) [5]) | percentage damage caused to the plant, five-point scale, ECHCG [6] | percentage damage caused to the plant, five-point scale, ABUTH (ABUTH [7]) | percentage damage caused to the plant, five-point scale, AMARE [8] | percentage damage caused to the plant, five-point scale, ABUTH (ABUTH [9]) | percentage damage caused to the plant, five-point scale, ECHCG [10] |
| --- | --- | --- | --- | --- | --- | --- | --- | --- | --- | --- |
| FC(F)(F)CCCn1ncc2cccc(Oc3ncc(Cl)cn3)c21 [Compound 1.001, 7-(5-chloropyrimidin-2-yl)oxy-1-(4,4,4-trifluorobutyl)indazole] | 4 (4=61-80%) | 1 (1=0-20%) | 1 (1=0-20%) | 2 (2=21-40%) | 5 (5=81-100%) | 3 (3=41-60%) | 4 (4=61-80%) | 4 (4=61-80%) | 4 (4=61-80%) | 5 (5=81-100%) |
| FC(F)(F)CCCn1ncc2c(Cl)cc(Cl)c(Oc3ncc(Cl)cn3)c21 [Compound 1.018] | 1 (1=0-20%) | 1 (1=0-20%) | 1 (1=0-20%) | 1 (1=0-20%) | 1 (1=0-20%) | 1 (1=0-20%) | 1 (1=0-20%) | – | 1 (1=0-20%) | 1 (1=0-20%) |
| FC(F)(F)CCCn1nnc2cccc(Oc3ncc(Cl)cn3)c21 [Compound 1.020, 7-(5-chloropyrimidin-2-yl)oxy-1-(4,4,4-trifluorobutyl) benzotriazole] | 5 (5=81-100%) | 2 (2=21-40%) | 2 (2=21-40%) | 2 (2=21-40%) | 5 (5=81-100%) | – | 4 (4=61-80%) | 5 (5=81-100%) | 3 (3=41-60%) | – |
| Cc1nn(CCCC(F)(F)F)c2c(Oc3ncc(Cl)cn3)cccc12 [Compound 1.021, 7-(5-chloropyrimidin-2-yl)oxy-3-methyl-1-(4,4,4-trifluorobutyl)indazole] | 4 (4=61-80%) | 2 (2=21-40%) | 3 (3=41-60%) | 1 (1=0-20%) | 5 (5=81-100%) | – | 3 (3=41-60%) | 5 (5=81-100%) | 4 (4=61-80%) | – |
| FC(F)(F)CCCn1nc(C(F)(F)F)c2cccc(Oc3ncc(Cl)cn3)c21 [Compound 1.022, 7-(5-chloropyrimidin-2-yl)oxy-1-(4,4,4-trifluorobutyl)-3-(trifluoromethyl)indazole] | 5 (5=81-100%) | 4 (4=61-80%) | 4 (4=61-80%) | 5 (5=81-100%) | 5 (5=81-100%) | – | 4 (4=61-80%) | 5 (5=81-100%) | 5 (5=81-100%) | 5 (5=81-100%) |
| COc1cc(Oc2cccc3nnn(CCCC(F)(F)F)c23)ncn1 [Compound 1.023] | 1 (1=0-20%) | 1 (1=0-20%) | 1 (1=0-20%) | 1 (1=0-20%) | 1 (1=0-20%) | – | 1 (1=0-20%) | 1 (1=0-20%) | 1 (1=0-20%) | – |
| N#Cc1cc(Oc2ncc(Cl)cn2)c2c(cnn2CCCC(F)(F)F)c1 [Compound 1.024] | 1 (1=0-20%) | 1 (1=0-20%) | 1 (1=0-20%) | 2 (2=21-40%) | 4 (4=61-80%) | – | 1 (1=0-20%) | 4 (4=61-80%) | 2 (2=21-40%) | – |
| FC(F)(F)CCCn1ncc2c(Br)ccc(Oc3ncc(Cl)cn3)c21 [Compound 1.025] | 2 (2=21-40%) | 1 (1=0-20%) | 1 (1=0-20%) | 2 (2=21-40%) | 2 (2=21-40%) | – | 1 (1=0-20%) | 1 (1=0-20%) | 2 (2=21-40%) | – |
| FC(F)(F)CCCn1nc(Cl)c2c(Cl)ccc(Oc3ncc(Cl)cn3)c21 [Compound 1.026] | 5 (5=81-100%) | 1 (1=0-20%) | 2 (2=21-40%) | 5 (5=81-100%) | 3 (3=41-60%) | – | 2 (2=21-40%) | 5 (5=81-100%) | 4 (4=61-80%) | 5 (5=81-100%) |
| FC(F)(F)CCCn1nc(Cl)c2c(Cl)cc(Cl)c(Oc3ncc(Cl)cn3)c21 [Compound 1.027] | 3 (3=41-60%) | 1 (1=0-20%) | 1 (1=0-20%) | 4 (4=61-80%) | 1 (1=0-20%) | 4 (4=61-80%) | 1 (1=0-20%) | 4 (4=61-80%) | 2 (2=21-40%) | – |
| FC(F)(F)CCCn1nc(Cl)c2c(Br)ccc(Oc3ncc(Cl)cn3)c21 [Compound 1.028] | 3 (3=41-60%) | 1 (1=0-20%) | 1 (1=0-20%) | 5 (5=81-100%) | 2 (2=21-40%) | – | 1 (1=0-20%) | 4 (4=61-80%) | 2 (2=21-40%) | – |
| N#Cc1ccc(Oc2ncc(Cl)cn2)c2c1c(Cl)nn2CCCC(F)(F)F [Compound 1.029] | 1 (1=0-20%) | 1 (1=0-20%) | 1 (1=0-20%) | 4 (4=61-80%) | 1 (1=0-20%) | – | 1 (1=0-20%) | 2 (2=21-40%) | 1 (1=0-20%) | – |
| N#Cc1cc(Oc2ncc(Cl)cn2)c2c(c1)c(Cl)nn2CCCC(F)(F)F [Compound 1.030] | 2 (2=21-40%) | 1 (1=0-20%) | 1 (1=0-20%) | 4 (4=61-80%) | 1 (1=0-20%) | 2 (2=21-40%) | 1 (1=0-20%) | 1 (1=0-20%) | 1 (1=0-20%) | – |
| Fc1cc(Cl)cnc1Oc1cccc2c(Cl)nn(CCCC(F)(F)F)c12 [Compound 1.032] | – | 1 (1=0-20%) | 3 (3=41-60%) | 5 (5=81-100%) | 4 (4=61-80%) | 3 (3=41-60%) | 1 (1=0-20%) | 3 (3=41-60%) | 3 (3=41-60%) | 3 (3=41-60%) |
